Experimental data published in publication PMC7507959, “A Structure-Based Mechanism for DNA Entry into the Cohesin Ring” (Molecular Cell, 2020).

B1: Psc3 (natural protein, fission yeast (S. pombe), UniProt O13816 1-962, looked up)
chain: MSESVTTGSDDDGGDRESSPVMLSQSFDPMSSSSNSSSEENSDDDYEKTISSKKRHPRPNSKGVNVKRSRRNAIVEEDPQEEIFNNLFAFLLDQKVDTMDIAVSWFADYAKDNQSALANLINFILKCCGCNRAINVFDVQDQDSASATLSQIQLSVERTSTRDYPLNSKNLKFRNFRKRLTGLLSNFVSQLSIRNYLYNSTVFEDIMSWVVAMSSSTMRPIRHTATVFCLNIMTFLCEKSKELLNEHAIATKQLEKEEKRSRVNRNRINELNNSLGEIVKQQDTLTTYLNDYFDSVFVHRYRDVEPKIRVDCLQELGVWINTVPSIFFSGSYLRYLGWMLSDINTTVRLTVVKVLRKFFETDSFIGGLRHFSSRFKERILEMSCVDADIGVRVASIRLCNAMRTCGFLENSEILKVLKLILDINPRVQREAVLFLCKVVDESVNEKIDLWGEEDYILKAFSQTSLTTFSVHWIKFSQMCKLLEEVRLSYQSSFDYDTLLRIFQKNGNFITPITQALLNACEIDSIYQSWEDISNFVLFDNYTSTLKDPIDSILSFCKLNDFQESILLQLLSASIQTVCNNNFITPKTVHNKQAAETTNDQNKDKDLLYLNLLPYINSITERNSASPTLLHDSLRLLFSMDLTEMTDPQLSRHFELLINNLKKFFLTNNDLQIIQGCTILFLRLDSIPALKEDLKLLVTDICDQTVTEFLKNFGSFNIQDAVITKDEFVIFEACLTRIEGCTSLKDFSDYPEFDIIYERLVSLLSRVPNSYEDTLKFSAINTLQSLLFWFFLRKDNPADEEKKKDDETKVFNCLINIMNNDSSKILQLQAARTFLETVIMKEGVKASHYNDDNRVSEEHNFLKPQFLDALLKILEGWLYTYAKVGQFPFKRLTQASSPHTQISLDKNPLNRRLLEHVCCDLTSKLLIVVSLSNTITPEFSQQFCELRGHYGPKLSAIVDEFLN
notes: Psc3 (Scc3/STAG1/2), HEAT repeat subunit of fission yeast cohesin; Subunit of the wild-type tetramer; constructs from Murayama and Uhlmann, 2014; also called Psc3^Scc3/STAG1/2; Scc3; source: budding yeast (W303 background), galactose-induced, purified as part of the cohesin tetramer

What was measured:
[1] = molecular target: T1, fission yeast cohesin (Psm1-Psm3-Rad21-Psc3) with Mis4-Ssl3 loader (Schizosaccharomyces pombe, UniProt O42649+O94383, O42649:E1126Q/O94383:E1161Q); experiment: FRET between SNAP/CLIP-labelled ATPase heads; type: binding; settings: hydrolysis-deficient EQ-cohesin; 0.5 mM ATP, Mis4-Ssl3, DNA, 1 mM MgCl2, pH 7.5, 32 °C
T1 construct: tetramer expressed in budding yeast (W303); Mis4-Ssl3 expressed in fission yeast; FRET rows carry SNAP on Psm1 and CLIP on Psm3 C termini; with Cohesin subunit rad21; Cohesin subunit psc3; Sister chromatid cohesion protein mis4; MAU2 chromatid cohesion factor homolog ssl3

[2] = molecular target: T2, N17-cohesin with Mis4-Ssl3 loader (Schizosaccharomyces pombe, UniProt O42649+O94383); experiment: ATP hydrolysis, [gamma-33P]-ATP thin layer chromatography; type: biochemical; settings: 0.25 mM ATP, Mis4-Ssl3, pBluescript dsDNA, 32 °C
T2 construct: gene psm1; as P1 but Rad21 lacks amino acids 1-17 (residues 18-646); expressed in budding yeast; with Cohesin subunit rad21; Cohesin subunit psc3; Sister chromatid cohesion protein mis4; MAU2 chromatid cohesion factor homolog ssl3

[3] = molecular target: T3, fission yeast cohesin (Psm1-Psm3-Rad21-Psc3) with Mis4-Ssl3 loader (Schizosaccharomyces pombe, UniProt O42649+O94383); experiment: as above; type: biochemical; settings: 0.25 mM ATP, Mis4-Ssl3, pBluescript dsDNA, 32 °C
T3 construct: tetramer expressed in budding yeast (W303); Mis4-Ssl3 expressed in fission yeast; FRET rows carry SNAP on Psm1 and CLIP on Psm3 C termini; with Cohesin subunit rad21; Cohesin subunit psc3; Sister chromatid cohesion protein mis4; MAU2 chromatid cohesion factor homolog ssl3

[4] = molecular target: T4, Mis4 (fission yeast (S. pombe), UniProt Q09725 1-1587); experiment: cross-linking; SDA (NHS-diazirine) UV crosslinking with mass spectrometry (CLMS), gripping state: 200 nM cohesin, 200 nM Mis4-Ssl3, 200 nM 125 bp dsDNA, 0.5 mM ADP and 0.5 mM BeSO4 + 10 mM NaF, 32°C 20 min; settings: both partners purified
T4 construct: Mis4 (Scc2/NIPBL), fission yeast cohesin loader; Used as the Mis4-Ssl3 complex; construct from Murayama and Uhlmann, 2014; also called Mis4^Scc2/NIPBL; cohesin loader; source: fission yeast, thiamine-repressible expression, purified as Mis4-Ssl3

[5] = molecular target: B1; experiment: as above; settings: both partners purified

T3 sequence (O94383 whole entry, one chain of several): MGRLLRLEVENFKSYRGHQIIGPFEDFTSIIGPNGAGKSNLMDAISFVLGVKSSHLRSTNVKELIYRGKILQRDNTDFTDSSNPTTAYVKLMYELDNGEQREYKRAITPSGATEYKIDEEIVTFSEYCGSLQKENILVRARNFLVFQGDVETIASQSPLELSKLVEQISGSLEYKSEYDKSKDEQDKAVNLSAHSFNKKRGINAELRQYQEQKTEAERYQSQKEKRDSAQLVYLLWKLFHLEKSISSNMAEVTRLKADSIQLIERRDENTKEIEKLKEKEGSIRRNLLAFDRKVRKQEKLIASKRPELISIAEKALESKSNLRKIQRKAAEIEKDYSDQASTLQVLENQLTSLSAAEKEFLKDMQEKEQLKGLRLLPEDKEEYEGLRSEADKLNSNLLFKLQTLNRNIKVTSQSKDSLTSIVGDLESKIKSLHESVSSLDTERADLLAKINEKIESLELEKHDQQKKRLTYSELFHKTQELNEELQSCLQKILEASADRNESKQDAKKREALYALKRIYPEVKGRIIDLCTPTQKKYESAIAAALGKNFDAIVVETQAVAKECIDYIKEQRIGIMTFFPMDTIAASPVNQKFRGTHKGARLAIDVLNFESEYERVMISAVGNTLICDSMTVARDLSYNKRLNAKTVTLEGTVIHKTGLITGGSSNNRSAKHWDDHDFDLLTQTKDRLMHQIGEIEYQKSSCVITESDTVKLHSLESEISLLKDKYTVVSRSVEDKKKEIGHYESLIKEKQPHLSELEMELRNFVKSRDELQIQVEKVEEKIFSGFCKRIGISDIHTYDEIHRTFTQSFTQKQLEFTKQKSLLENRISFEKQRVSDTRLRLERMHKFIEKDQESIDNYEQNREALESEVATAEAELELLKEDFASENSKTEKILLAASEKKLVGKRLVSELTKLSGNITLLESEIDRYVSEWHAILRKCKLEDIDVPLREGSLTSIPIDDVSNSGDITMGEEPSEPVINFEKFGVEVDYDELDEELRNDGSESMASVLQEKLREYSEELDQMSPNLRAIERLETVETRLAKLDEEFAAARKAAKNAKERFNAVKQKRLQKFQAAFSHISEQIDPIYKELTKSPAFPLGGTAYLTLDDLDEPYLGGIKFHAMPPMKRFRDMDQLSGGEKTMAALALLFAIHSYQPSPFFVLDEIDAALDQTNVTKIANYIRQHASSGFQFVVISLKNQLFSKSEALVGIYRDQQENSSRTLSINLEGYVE
T3 sequence (O42649 whole entry, one chain of several): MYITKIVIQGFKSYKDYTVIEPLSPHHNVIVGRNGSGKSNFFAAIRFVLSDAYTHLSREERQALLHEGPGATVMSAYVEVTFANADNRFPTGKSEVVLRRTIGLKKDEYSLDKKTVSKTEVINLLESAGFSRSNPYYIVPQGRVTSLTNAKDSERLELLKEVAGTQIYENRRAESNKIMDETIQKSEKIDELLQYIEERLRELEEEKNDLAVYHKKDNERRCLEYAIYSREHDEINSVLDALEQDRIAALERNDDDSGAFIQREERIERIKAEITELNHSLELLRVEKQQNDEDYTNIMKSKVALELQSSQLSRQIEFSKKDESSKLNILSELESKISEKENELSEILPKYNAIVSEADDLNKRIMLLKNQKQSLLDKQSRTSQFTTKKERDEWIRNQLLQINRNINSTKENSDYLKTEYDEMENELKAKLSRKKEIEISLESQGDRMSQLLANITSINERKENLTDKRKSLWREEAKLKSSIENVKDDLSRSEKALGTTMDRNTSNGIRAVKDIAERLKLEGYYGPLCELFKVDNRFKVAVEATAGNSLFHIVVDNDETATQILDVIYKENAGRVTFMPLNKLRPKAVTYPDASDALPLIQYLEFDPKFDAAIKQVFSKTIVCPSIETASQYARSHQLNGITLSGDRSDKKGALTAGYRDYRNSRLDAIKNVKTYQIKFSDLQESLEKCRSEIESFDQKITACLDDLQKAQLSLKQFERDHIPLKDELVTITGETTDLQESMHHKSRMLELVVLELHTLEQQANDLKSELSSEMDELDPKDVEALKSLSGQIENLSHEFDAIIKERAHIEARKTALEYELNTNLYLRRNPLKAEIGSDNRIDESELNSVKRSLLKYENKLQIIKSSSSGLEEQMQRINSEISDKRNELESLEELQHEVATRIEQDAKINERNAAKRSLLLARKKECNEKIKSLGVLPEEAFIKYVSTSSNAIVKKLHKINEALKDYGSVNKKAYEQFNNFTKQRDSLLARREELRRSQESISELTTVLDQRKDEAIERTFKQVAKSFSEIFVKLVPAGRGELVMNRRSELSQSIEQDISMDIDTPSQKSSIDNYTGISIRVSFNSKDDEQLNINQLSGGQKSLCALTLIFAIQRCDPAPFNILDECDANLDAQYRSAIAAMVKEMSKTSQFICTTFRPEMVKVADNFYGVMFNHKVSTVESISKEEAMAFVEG
T3 sequence (P30776 whole entry partner, one chain of several): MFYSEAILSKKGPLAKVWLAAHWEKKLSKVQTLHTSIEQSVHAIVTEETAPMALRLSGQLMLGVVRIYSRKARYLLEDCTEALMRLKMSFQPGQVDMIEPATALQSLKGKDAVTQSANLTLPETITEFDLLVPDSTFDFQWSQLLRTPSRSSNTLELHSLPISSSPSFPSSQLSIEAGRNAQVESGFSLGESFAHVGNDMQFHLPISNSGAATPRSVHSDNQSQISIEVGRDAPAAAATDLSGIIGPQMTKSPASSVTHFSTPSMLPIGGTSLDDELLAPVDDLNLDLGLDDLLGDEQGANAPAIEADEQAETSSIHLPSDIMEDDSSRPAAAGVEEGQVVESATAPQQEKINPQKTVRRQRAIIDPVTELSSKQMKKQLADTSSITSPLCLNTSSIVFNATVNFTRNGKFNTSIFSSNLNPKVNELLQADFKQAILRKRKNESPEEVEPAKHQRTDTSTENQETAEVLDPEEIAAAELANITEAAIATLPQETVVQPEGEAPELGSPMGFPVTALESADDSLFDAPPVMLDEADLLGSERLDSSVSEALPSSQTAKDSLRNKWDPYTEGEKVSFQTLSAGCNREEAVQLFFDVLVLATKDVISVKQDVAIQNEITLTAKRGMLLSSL
T3 sequence (Q09725 whole entry partner, one chain of several): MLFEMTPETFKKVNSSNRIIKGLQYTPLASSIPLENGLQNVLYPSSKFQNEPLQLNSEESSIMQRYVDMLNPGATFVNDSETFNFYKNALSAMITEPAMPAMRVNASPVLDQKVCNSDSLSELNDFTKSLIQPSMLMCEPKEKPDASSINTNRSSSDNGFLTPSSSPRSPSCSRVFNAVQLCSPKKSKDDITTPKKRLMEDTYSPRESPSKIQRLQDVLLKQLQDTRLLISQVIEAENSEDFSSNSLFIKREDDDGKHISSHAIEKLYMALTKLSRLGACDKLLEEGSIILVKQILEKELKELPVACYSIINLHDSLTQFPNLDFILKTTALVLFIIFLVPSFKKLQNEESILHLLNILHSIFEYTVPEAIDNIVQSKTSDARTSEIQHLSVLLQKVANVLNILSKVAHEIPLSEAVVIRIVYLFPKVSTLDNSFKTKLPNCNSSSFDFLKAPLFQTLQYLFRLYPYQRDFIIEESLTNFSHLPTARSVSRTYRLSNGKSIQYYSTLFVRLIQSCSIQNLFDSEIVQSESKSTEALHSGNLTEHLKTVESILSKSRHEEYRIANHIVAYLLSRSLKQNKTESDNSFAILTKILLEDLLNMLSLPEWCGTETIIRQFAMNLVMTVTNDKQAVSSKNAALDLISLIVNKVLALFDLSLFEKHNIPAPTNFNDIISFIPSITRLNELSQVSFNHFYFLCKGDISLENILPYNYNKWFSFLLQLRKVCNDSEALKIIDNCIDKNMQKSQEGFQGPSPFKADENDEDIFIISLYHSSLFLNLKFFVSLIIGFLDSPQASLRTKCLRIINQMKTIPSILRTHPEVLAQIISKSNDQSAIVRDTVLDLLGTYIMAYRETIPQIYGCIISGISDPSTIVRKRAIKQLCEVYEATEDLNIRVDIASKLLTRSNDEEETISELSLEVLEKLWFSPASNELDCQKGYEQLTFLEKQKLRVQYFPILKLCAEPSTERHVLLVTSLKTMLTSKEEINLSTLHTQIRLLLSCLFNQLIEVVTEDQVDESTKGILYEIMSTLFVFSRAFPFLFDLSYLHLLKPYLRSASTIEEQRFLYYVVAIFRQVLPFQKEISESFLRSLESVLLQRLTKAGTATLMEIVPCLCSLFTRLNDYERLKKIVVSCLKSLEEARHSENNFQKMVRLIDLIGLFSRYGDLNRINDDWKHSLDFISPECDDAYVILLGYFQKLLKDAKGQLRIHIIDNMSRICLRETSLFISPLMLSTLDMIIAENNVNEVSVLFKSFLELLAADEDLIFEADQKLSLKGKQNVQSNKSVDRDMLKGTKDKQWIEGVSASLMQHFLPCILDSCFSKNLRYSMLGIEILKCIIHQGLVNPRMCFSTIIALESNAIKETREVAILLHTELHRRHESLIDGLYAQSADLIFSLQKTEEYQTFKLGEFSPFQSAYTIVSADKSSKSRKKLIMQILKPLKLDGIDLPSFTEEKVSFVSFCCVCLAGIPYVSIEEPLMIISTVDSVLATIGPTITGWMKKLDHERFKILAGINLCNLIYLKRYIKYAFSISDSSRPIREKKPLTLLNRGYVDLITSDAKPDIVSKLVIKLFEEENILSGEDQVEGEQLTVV
T1 sequence (O94383 whole entry E1161Q, one chain of several): as the sequence (O94383 whole entry, one chain of several) above, with E1161Q counted along it
T1 sequence (O42649 whole entry E1126Q, one chain of several): as the sequence (O42649 whole entry, one chain of several) above, with E1126Q counted along it
T1 sequence (P30776 whole entry partner, one chain of several): as the sequence (P30776 whole entry partner, one chain of several) above
T1 sequence (Q09725 whole entry partner, one chain of several): as the sequence (Q09725 whole entry partner, one chain of several) above
T4 sequence (Q09725 whole entry): as the sequence (Q09725 whole entry partner, one chain of several) above

Nc1ncnc2c1ncn2[C@@H]1O[C@H](COP(=O)(O)OP(=O)(O)OP(=O)(O)O)[C@@H](O)[C@H]1O [ATP]
FRET between SNAP/CLIP-labelled ATPase heads [1]: the presence of all three components—the loader, DNA, and ATP—resulted in a marked FRET increase
ATP hydrolysis, [gamma-33P]-ATP thin layer chromatography [2]: loader-stimulated ATP hydrolysis were equal when using wild-type or N17-cohesin
ATP hydrolysis, [gamma-33P]-ATP thin layer chromatography [3]: loader-stimulated ATP hydrolysis were equal when using wild-type or N17-cohesin

B1
binding result [4]: binds

B2: Ssl3 (natural protein, fission yeast (S. pombe), UniProt O94459 1-559, looked up)
chain: MTGLNETDARILVTSRHLFLWPLAETYFKNAEKVLQDCGVCDSFGRLLSTGLQCLYSVLMDTKMEPRVELLTRKRICEVLLSHTVEYADVEAILNRALIIAEQHNLTEYKFSLQLLLSRVFCRTSPKAAKVLLTRCVREAEEYAKVAEIYHSNNQSNPHRWVYEFLLATLEFQNVSQVANSIHNYANHHKHQHLQLLAMILNQSLPMDEISTDSDQISILCLVTQIAQCLRKGEILLAREILPKIHSKLESETFVWPSSYIDFFIDDTSKISIKWMSINQLYLLIYLISGFCYISDSTSGRASRFLQEGLRITGDFKHQERCVLEYLESQKWINNITKDMKYYLIATYLSRSRLSKAERILQSTEDDQTGFLGILKGMYLQKRGDLKKAEVHYRETAKNFSFRTDTFIISTLNLINILEDSAAASRCLESIEPLCNKHEKKIFKLWLLVLKVIREGPQVHQSNVLPRVIQQSSEYANTQLQYISLTELSERFGKLEHAEKMAISALELAKKSKDELWCLISGRILEDFYRSVQKYDKMRQQALENSAYSKLIEDIYSFV
notes: Ssl3 (Scc4/MAU2), small subunit of the fission yeast cohesin loader; Used as the Mis4-Ssl3 complex; construct (plasmid pSsl3) from Murayama and Uhlmann, 2014; also called Ssl3^Scc4/MAU2; Scc4; source: fission yeast, thiamine-repressible expression, purified as Mis4-Ssl3
binding result [5]: binds
